Data from patent US5444087A, “Manumycin compounds” (Bristol-Myers Squibb Company, priority 1993, dated 1995).
Values after ≈ are worked out from the molar mass of the structure shown.

Assays:
[1] = test system: Staphylococcus aureus A9537; assay: MIC by broth dilution assay, S. aureus A9537; type: cell-based; details: serial broth dilution, nutrient broth
[2] = test system: Staphylococcus aureus A9606; assay: MIC by broth dilution assay, S. aureus A9606; type: cell-based; details: serial broth dilution, nutrient broth
[3] = test system: Staphylococcus epidermidis A24548; assay: MIC by broth dilution assay, S. epidermidis A24548; type: cell-based; details: serial broth dilution, nutrient broth
Bacillus subtilis A9506 = assay: MIC by broth dilution assay, B. subtilis A9506; type: cell-based; details: serial broth dilution, nutrient broth
[4] = test system: Salmonella typhimurium A27908; assay: MIC by broth dilution assay, S. typhimurium A27908; type: cell-based; details: Salmonella enterica, serial broth dilution, nutrient broth
Micrococcus luteus A9852 = assay: MIC by broth dilution assay, M. luteus A9852; type: cell-based; details: serial broth dilution, nutrient broth
M. luteus A21349 = assay: MIC by broth dilution assay, M. luteus A21349; type: cell-based; details: Micrococcus luteus, serial broth dilution, nutrient broth
Escherichia coli SGB888 = assay: MIC by broth dilution assay, E. coli SGB888; type: cell-based; details: serial broth dilution, nutrient broth
Proteus mirabilis A9900 = assay: MIC by broth dilution assay, P. mirabilis A9900; type: cell-based; details: serial broth dilution, nutrient broth
[5] = test system: Klebsiella pnneumoniae A9664; assay: MIC by broth dilution assay, K. pneumoniae A9664; type: cell-based; details: serial broth dilution, nutrient broth
[6] = test system: Enterobacter cloacae A9656; assay: MIC by broth dilution assay, E. cloacae A9656; type: cell-based; details: serial broth dilution, nutrient broth
[7] = test system: Pseudomonas aeruginosa A9843; assay: MIC by broth dilution assay, P. aeruginosa A9843; type: cell-based; details: serial broth dilution, nutrient broth
[8] = molecular target: farnesylation of Ras protein p21 (protein-cysteine farnesyltransferase); assay: Inhibition of farnesylation of Ras protein p21 (assay of Manne et al.); type: biochemical; details: assay described by Manne et al. (1990); read-out: IC50 value in inhibiting the farnesylation of Ras protein p21
Solubility = type: physicochemical

| Structure (SMILES) | MIC [1] [µg/mL] | MIC [2] [µg/mL] | MIC [3] [µg/mL] | MIC (Bacillus subtilis A9506) [µg/mL] | MIC [4] [µg/mL] | MIC (Micrococcus luteus A9852) [µg/mL] | MIC (M. luteus A21349) [µg/mL] | MIC (Escherichia coli SGB888) [µg/mL] | MIC (Proteus mirabilis A9900) [µg/mL] | MIC [5] [µg/mL] | MIC [6] [µg/mL] | MIC [7] [µg/mL] | IC50 [8] [µM] | solubility in acetone (Solubility) | solubility in acetonitrile (Solubility) | solubility in dimethyl sulfoxide (Solubility) | solubility in hexane (Solubility) | solubility in water (Solubility) |
| --- | --- | --- | --- | --- | --- | --- | --- | --- | --- | --- | --- | --- | --- | --- | --- | --- | --- | --- |
| CC(C)CC/C=C/C=C/C=C/C(=O)NC1=CC(O)(/C=C/C=C/C=C/C(=O)NC2=C(O)CCC2=O)C2OC2C1=O (stereo not drawn) [Manumycin C, 2,4,6-heptatrienenamide, 7-isopentyl-N-[5-hydroxy-5-[7-[2-hydroxy-5-oxo-1-cyclopenten-1-yl-amino]-7-oxo-1,3,5-heptatrienyl]-2-oxo-7-oxabicyclo[4.1.0]hept-3-en-yl]-, (all-E)-] | 2 (≈ 3.74 µM) | 4 (≈ 7.48 µM) | 2 (≈ 3.74 µM) | 1 (≈ 1.87 µM) | 2 (≈ 3.74 µM) | 8 (≈ 15 µM) | 4 (≈ 7.48 µM) | 0.32 (≈ 0.599 µM) | 128 (≈ 239 µM) | 128 (≈ 239 µM) | 128 (≈ 239 µM) | 64 (≈ 120 µM) | 100 | soluble | soluble | soluble | insoluble | insoluble |
| O=C(/C=C/C=C/C=C/C1CCCCC1)NC1=CC(O)(/C=C/C=C/C=C/C(=O)NC2=C(O)CCC2=O)C2OC2C1=O (stereo not drawn) [Manumycin D, 2,4,6-heptatrienenamide, 7-cyclohexyl-N-[5-hydroxy-5-[7-[2-hydroxy-5-oxo-1-cyclopenten-1-yl-amino]-7-oxo-1,3,5-heptatrienyl]-2-oxo-7-oxabicyclo[4.1.0]hept-3-en-yl]-, (all-E)-] | 1 (≈ 1.83 µM) | 2 (≈ 3.66 µM) | 1 (≈ 1.83 µM) | 0.5 (≈ 0.915 µM) | 0.5 (≈ 0.915 µM) | 2 (≈ 3.66 µM) | 1 (≈ 1.83 µM) | 0.1 (≈ 0.183 µM) | 128 (≈ 234 µM) | 128 (≈ 234 µM) | 128 (≈ 234 µM) | 128 (≈ 234 µM) | 92.5 | soluble | soluble | soluble | insoluble | insoluble |
| CC(C)/C=C/C=C/C=C/C(=O)NC1=CC(O)(/C=C/C=C/C=C/C(=O)NC2=C(O)CCC2=O)C2OC2C1=O (stereo not drawn) [Manumycin E, 2,4,6-heptatrienenamide, 7-isopropyl-N-[5-hydroxy-5-[7-[2-hydroxy-5-oxo-1-cyclopenten-1-yl-amino]-7-oxo-1,3,5-heptatrienyl]-2-oxo-7-oxabicyclo[4.1.0]hept-3-en-yl]-, (all-E)-] | 8 (≈ 15.8 µM) | 8 (≈ 15.8 µM) | 8 (≈ 15.8 µM) | 8 (≈ 15.8 µM) | 32 (≈ 63.2 µM) | 16 (≈ 31.6 µM) | 16 (≈ 31.6 µM) | 2.5 (≈ 4.94 µM) | 128 (≈ 253 µM) | 128 (≈ 253 µM) | 128 (≈ 253 µM) | 128 (≈ 253 µM) | 120 | soluble | soluble | soluble | insoluble | insoluble |
